Results as given in patent US20250186436A1 (4E Therapeutics, Inc., priority 2021, published 2025).
“And” between values parts separate entries of the source, which are not always exact repeats. Equal values may be shown once. Read-outs that look alike come from different tables or passages of the source.

How the values were obtained:
[1] = Liver microsome stability; details: mouse, liver microsomes
[2] = PK study in male Sprague-Dawley rats, IV 0.5 mg/kg and PO 1 mg/kg in 10% DMA/PG (Example 5); type: in vivo; details: for MRT inf: MRTinf
Experimental: Example 5: PK study of 4ET-03-053 in male Sprague-Dawley rats with IV (0.5 mg kg; 10% DMI 15% EtOH 35% PG 40% NS) and PO (1 mg kg; 10% DMA PG) dosing
In male Sprague-Dawley rats, following IV administration with 0.5 mg/kg 4ET-03-053, plasma concentrations declined in a multiphasic manner with an initial concentration (Co) of 1.24 ug/mL and a last measurable concentration (Clast) of 33.2 ng/mL at 24 h post dose.
(§1) Table 15 provides plasma and brain concentrations at 2 hr after a single P0 dose of 1 mg/kg.

[3] = Plasma and brain concentrations, brain to plasma ratio in SD rats 2 hr after single 10 mg/kg PO (Example 4); type: in vivo; details: 2 hr post single PO dose 10 mg/kg; for concentration at 2 hr: Sprague-Dawley, po
Experimental: A brain to plasma ratio of 0.096 (BP=0.096) in SD rats is observed at 2 hr following a single 10 mg/kg dose of 4ET-03-053.

[4] = target: T1, recombinant full-length human kinase MNK1 (Homo sapiens, UniProt Q9BUB5); experiment: MNK1 radiometric kinase activity assay; type: biochemical; details: radiometric activity assay; read-out: MNK1
T1 construct: the recombinant full-length human kinase MNK1; made in house; host or cells: insect cells
T1 sequence (Q9BUB5 whole entry): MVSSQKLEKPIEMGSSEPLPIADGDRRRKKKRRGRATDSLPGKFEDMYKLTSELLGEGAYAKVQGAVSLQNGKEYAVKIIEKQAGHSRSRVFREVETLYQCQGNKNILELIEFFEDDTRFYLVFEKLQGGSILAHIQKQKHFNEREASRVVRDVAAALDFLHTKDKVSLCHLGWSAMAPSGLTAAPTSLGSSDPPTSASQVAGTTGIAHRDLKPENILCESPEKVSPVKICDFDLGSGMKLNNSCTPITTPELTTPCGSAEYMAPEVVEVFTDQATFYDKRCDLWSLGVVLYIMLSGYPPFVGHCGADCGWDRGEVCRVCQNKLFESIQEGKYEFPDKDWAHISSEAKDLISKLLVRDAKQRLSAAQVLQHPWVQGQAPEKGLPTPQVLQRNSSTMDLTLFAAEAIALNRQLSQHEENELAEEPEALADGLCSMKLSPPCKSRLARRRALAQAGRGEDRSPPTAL

[5] = Plasma and brain concentrations, brain to plasma ratio in male CD1 mice (Example 3); type: in vivo; details: 2 h post dosing; for concentration at 2 h: male, CD1, mouse
[6] = target: T2, recombinant full length human kinase MNK2 (Homo sapiens, UniProt Q9HBH9); experiment: MNK2 radiometric kinase activity assay; type: biochemical; details: radiometric activity assay; read-out: MNK2
T2 construct: the recombinant full length human kinase MNK2; made in house; host or cells: insect cells
T2 sequence (Q9HBH9 whole entry): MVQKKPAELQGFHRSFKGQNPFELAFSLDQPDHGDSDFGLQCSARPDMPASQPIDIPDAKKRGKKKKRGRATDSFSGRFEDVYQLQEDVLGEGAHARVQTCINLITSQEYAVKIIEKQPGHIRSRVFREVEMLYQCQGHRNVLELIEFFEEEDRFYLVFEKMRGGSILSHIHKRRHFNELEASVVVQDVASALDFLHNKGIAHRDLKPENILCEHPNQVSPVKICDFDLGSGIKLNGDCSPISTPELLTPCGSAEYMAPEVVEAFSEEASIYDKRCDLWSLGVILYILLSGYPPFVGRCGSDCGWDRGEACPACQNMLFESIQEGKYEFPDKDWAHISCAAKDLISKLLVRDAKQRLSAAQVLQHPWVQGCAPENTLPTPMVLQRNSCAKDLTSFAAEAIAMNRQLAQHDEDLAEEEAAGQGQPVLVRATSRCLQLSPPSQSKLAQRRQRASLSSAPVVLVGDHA

[7] = PK study in male Sprague-Dawley rats dosed once per day for five days, PO 25 mg/kg, 0.5% HPMC (Example 8); type: in vivo; details: 0.5% HPMC suspension
[8] = Plasma and brain concentrations, brain to plasma ratio 24 hr after last of five 10 mg/kg PO doses (Example 7); type: in vivo; details: rats, 24 hr after the last of five 10 mg/kg PO doses; for concentration at 24 h: oral, 10 mg/kg
Description: Table 21 provides plasma and brain concentrations at 24 hr after the last dose of five daily P0 doses of 4ET-03-053.

[9] = Plasma and brain concentrations, brain:plasma ratio in rats 2 hr after single PO 1 mg/kg (Example 5); type: in vivo; details: for concentration at 2 hr: po
Experimental: as §1

P-gp (human MDR1, ABCB1) = experiment: MDCK-MDR1 permeability (blood-brain barrier permeability); details: dog
[10] = tested on: eIF4E phosphorylation in hDRGs; experiment: p-eIF4E immunofluorescence in cultured human dorsal root ganglion cells (hDRGs); type: cell-based; details: immunofluorescence
Experimental: For all human DRG experiments, DRGs were recovered from organ donors at the Southwest Transplant Alliance under an IRB approved protocol at University of Texas at Dallas. DRGs were recovered within 3 hrs of cross clamp. DRGs were recovered and taken back to the University of Texas lab where they were cultured using the protocol described previously. Cultures were grown on glass coverslips for microscopy. Coverslips were coated with poly-D-lysine and laminin to improve neuronal adherence to the coverslips. Cultures of human DRG neurons were grown for 4-7 days prior to treatment with OSM. OSM treatment was done in culture media for a period of 30 min. Cells were stained with antibodies using the same protocol as described above for HEK293 cells. Imaging was done on an Olympus FV1200 microscope and image analysis was done with CellSens software. Statistical analysis was done with Graphpad Prism V8.
Human DRG recovery and other experimental protocols were the same as described herein.

[11] = male Sprague-Dawley rats, IV 0.5 mg/kg, 10% DMI:15% EtOH:35% PG:40% NS, individual animals, 0.5 mg/kg
[12] = male, Sprague-Dawley, rat, in vivo, iv, 0.5 mg/kg
[13] = male, Sprague-Dawley, rat, in vivo, po, 1 mg/kg
[14] = individual animals (n = 3), 10 mg/kg

Cc1cc(Nc2cc(N)ncn2)c(=O)n2c1C(=O)NC21CCC2(CC2)CC1 [4ET-03-053, 6″-((6-Aminopyrimidin-4-yl)amino)-8″-methyl-2″H-dispiro[cyclopropane-1,1′-cyclohexane-4′,3″-imidazo[1,5-a]pyridine]-1″,5″-dione]
half-life [1]: 228 min
AUClast [2, 11]: 4654 ng·h/mL and 3767 ng·h/mL
Clast [2, 11]: 36.7 ng/mL and 29.7 ng/mL
C0 [2, 12]: 1240 ng/mL
AUC(0-inf) ([2]; male, Sprague-Dawley, rat, in vivo, iv, 0.5 mg/kg, AUCinf): 4080 ng·h/mL
clearance ([2]; male, Sprague-Dawley, rat, in vivo, iv, 0.5 mg/kg, CLp): 2.04 mL/min/kg
MRT inf [2, 12]: 7.69 h
Vd ([2]; male, Sprague-Dawley, rat, in vivo, iv, 0.5 mg/kg, Vss): 0.942 L/kg
concentration at 24 h ([2]; male, Sprague-Dawley, rat, in vivo, iv, 0.5 mg/kg, male Sprague-Dawley rats, 0.5 mg/kg IV, at 24 h, read-out: last measurable concentration (Clast)): 33.2 ng/mL
AUC(0-t) ([2]; male, Sprague-Dawley, rat, in vivo, iv, 0.5 mg/kg, male Sprague-Dawley rats, IV 0.5 mg/kg, 10% DMI:15% EtOH:35% PG:40% NS, individual animals, read-out: AUClast): 4030 ng·h/mL
concentration at 24 h ([2]; male, Sprague-Dawley, rat, in vivo, iv, 0.5 mg/kg, male Sprague-Dawley rats, IV 0.5 mg/kg, 10% DMI:15% EtOH:35% PG:40% NS, individual animals, read-out: Clast): 33.1 ng/mL
AUC(0-t) ([2]; male, Sprague-Dawley, rat, in vivo, iv, 0.5 mg/kg, male Sprague-Dawley rats, IV 0.5 mg/kg, 10% DMI:15% EtOH:35% PG:40% NS, mean (n = 3), read-out: AUClast): 4150 ng·h/mL
concentration at 24 h ([2]; male, Sprague-Dawley, rat, in vivo, iv, 0.5 mg/kg, male Sprague-Dawley rats, IV 0.5 mg/kg, 10% DMI:15% EtOH:35% PG:40% NS, mean (n = 3), read-out: Clast): 33.2 ng/mL
Vd ([2]; male, Sprague-Dawley, rat, in vivo, iv, 0.5 mg/kg, steady-state volume of distribution (Vss)): 0.87 L/kg
clearance ([2]; male, Sprague-Dawley, rat, in vivo, iv, 0.5 mg/kg, systemic clearance (CLp)): 1.87 mL/min/kg
half-life ([2]; male, Sprague-Dawley, rat, in vivo, iv, 0.5 mg/kg, t1/2): 436 min
half-life ([2]; male, Sprague-Dawley, rat, in vivo, iv, 0.5 mg/kg, terminal half-life (t1/2)): 440 min
AUC(0-inf) ([2]; male, Sprague-Dawley, rat, in vivo, iv, 0.5 mg/kg, total systemic exposure (AUCinf)): 4500 ng·h/mL
Tmax [2, 13]: 30 min
bioavailability [2, 13]: 76.7%
time to peak plasma concentration [2, 13]: ≤ 30 min
AUC(0-inf) ([2]; male, Sprague-Dawley, rat, in vivo, po, 1 mg/kg, AUCinf): 7020 ng·h/mL
AUC(0-t) ([2]; male, Sprague-Dawley, rat, in vivo, po, 1 mg/kg, AUClast): 6110 ng·h/mL
concentration at 24 hr ([2]; male, Sprague-Dawley, rat, in vivo, po, 1 mg/kg, Clast): 74.6 ng/mL
Cmax ([2]; male, Sprague-Dawley, rat, in vivo, po, 1 mg/kg, Cmax): 683 ng/mL
MRT inf [2, 13]: 10.6 h
concentration at 24 hr ([2]; male, Sprague-Dawley, rat, in vivo, po, 1 mg/kg, last measurable concentration): 74.6 ng/mL
Cmax ([2]; male, Sprague-Dawley, rat, in vivo, po, 1 mg/kg, peak plasma concentration (Cmax)): 683 ng/mL
half-life ([2]; male, Sprague-Dawley, rat, in vivo, po, 1 mg/kg, t1/2): 554 min
half-life ([2]; male, Sprague-Dawley, rat, in vivo, po, 1 mg/kg, terminal half-life (t1/2)): 554 min
AUC(0-inf) ([2]; male, Sprague-Dawley, rat, in vivo, po, 1 mg/kg, total systemic exposure (AUCinf)): 6900 ng·h/mL
Brain Tissue Homogenate Conc. [3, 14]: 406 ng/mL and 323 ng/mL
Plasma Conc. [3, 14]: 16900 ng/mL and 14400 ng/mL
Kp at 2 h ([3]; Sprague Dawley, rat, brain/plasma, read-out: Mean Tissue/Plasma Conc. Ratio (brain to plasma ratio)): 0.096
concentration at 2 hr ([3]; rat, brain tissue homogenate, 10 mg/kg, individual animals (n = 3), read-out: Brain Tissue Homogenate Conc.): 319 ng/mL
concentration at 2 hr ([3]; rat, brain tissue homogenate, 10 mg/kg, mean, read-out: Brain Tissue Homogenate Conc., Mean): 349 ng/mL
concentration at 2 hr ([3]; rat, brain, 10 mg/kg, read-out: Brain Mean Tissue): 1400 ng/g
concentration at 2 hr ([3]; rat, plasma, 10 mg/kg, individual animals (n = 3), read-out: Plasma Conc.): 12200 ng/mL
concentration at 2 hr ([3]; rat, plasma, 10 mg/kg, mean, read-out: Plasma Conc., Mean): 14500 ng/mL
IC50 [4]: 215 nM
Brain Tissue Homogenate Conc. ([5]; individual animals (n = 3)): 5.89 ng/mL and 6.41 ng/mL
Plasma Conc. ([5]; individual animals (n = 3)): 584 ng/mL and 661 ng/mL
concentration at 2 h ([5]; brain tissue homogenate, individual animals (n = 3), read-out: Brain Tissue Homogenate Conc.): 4.61 ng/mL
concentration at 2 h ([5]; brain tissue homogenate, mean, read-out: Brain Tissue Homogenate Conc., Mean): 5.64 ng/mL
concentration at 2 h ([5]; brain tissue, read-out: Brain Mean Tissue): 22.5 ng/g
concentration at 2 h ([5]; plasma, individual animals (n = 3), read-out: Plasma Conc.): 488 ng/mL
concentration at 2 h ([5]; plasma, mean, read-out: Plasma Conc., Mean): 578 ng/mL
Kp at 2 h ([5]; mouse, brain/plasma, read-out: Mean Tissue/Plasma Conc. Ratio (brain to plasma ratio)): 0.039
IC50 [6]: 20.9 nM
half-life ([7]; male, Sprague-Dawley, rat, in vivo, po, 25 mg/kg, single PO 25 mg/kg dose, individual animals): 422 min
concentration at 24 h ([7]; male, Sprague-Dawley, rat, in vivo, po, 25 mg/kg, single PO 25 mg/kg dose, mean (n = 3), read-out: Clast): 2890 ng/mL
concentration at 24 h ([7]; male, Sprague-Dawley, rat, in vivo, po, 25 mg/kg, single PO 25 mg/kg, at 24 hr, read-out: last measurable concentration): 2890 ng/mL
F ([7]; single PO 25 mg/kg dose, mean (n = 3)): 26.5%
time to peak plasma concentration ([7]; single PO 25 mg/kg): ≤ 2 h
concentration at 24 h ([8]; male, Sprague-Dawley, rat, brain homogenate, brain homogenate, individual animals (n = 3), read-out: Tissue Homogenate Conc.): 75.6 ng/mL
concentration at 24 h ([8]; male, Sprague-Dawley, rat, brain homogenate, brain homogenate, mean, read-out: Tissue Homogenate Conc., Mean): 85.6 ng/mL
concentration at 24 h ([8]; male, Sprague-Dawley, rat, brain, brain, read-out: Mean Tissue): 342 ng/g
concentration at 24 h ([8]; male, Sprague-Dawley, rat, plasma, plasma, individual animals (n = 3), read-out: Plasma Conc.): 2390 ng/mL
concentration at 24 h ([8]; male, Sprague-Dawley, rat, plasma, plasma, mean, read-out: Plasma Conc., Mean): 2670 ng/mL
Kp at 24 h ([8]; male, Sprague-Dawley, rat, brain to plasma, read-out: Mean Tissue/Plasma Conc. Ratio): 0.128
Tissue Homogenate Conc. ([8]; brain homogenate, individual animals (n = 3)): 88.2 ng/mL and 93.0 ng/mL
Plasma Conc. ([8]; plasma, individual animals (n = 3)): 2740 ng/mL and 2880 ng/mL
concentration at 2 hr ([9]; male, Sprague-Dawley, rat, brain homogenate, 1 mg/kg, rats, brain homogenate, 2 hr after single PO 1 mg/kg, individual animals (n = 3), read-out: Tissue Homogenate Conc.): 9.82 ng/mL
concentration at 2 hr ([9]; male, Sprague-Dawley, rat, brain homogenate, 1 mg/kg, rats, brain homogenate, 2 hr after single PO 1 mg/kg, mean, read-out: Tissue Homogenate Conc., Mean): 11.8 ng/mL
concentration at 2 hr ([9]; male, Sprague-Dawley, rat, brain, 1 mg/kg, rats, brain, 2 hr after single PO 1 mg/kg, read-out: Mean Tissue): 47.2 ng/g
concentration at 2 hr ([9]; male, Sprague-Dawley, rat, plasma, 1 mg/kg, rats, plasma, 2 hr after single PO 1 mg/kg, individual animals (n = 3), read-out: Plasma Conc.): 506 ng/mL
concentration at 2 hr ([9]; male, Sprague-Dawley, rat, plasma, 1 mg/kg, rats, plasma, 2 hr after single PO 1 mg/kg, mean, read-out: Plasma Conc., Mean): 566 ng/mL
Kp at 2 hr ([9]; male, Sprague-Dawley, rat, rats, brain to plasma, 2 hr after single PO 1 mg/kg, read-out: Mean Tissue/Plasma Conc. Ratio): 0.083
Kp at 2 h ([9]; rat, brain, Sprague-Dawley rats, 2 hr after a single PO dose of 1 mg/kg): 0.083
Tissue Homogenate Conc. ([9]; rats, brain homogenate, 2 hr after single PO 1 mg/kg, individual animals (n = 3), 1 mg/kg): 11.4 ng/mL and 14.2 ng/mL
Plasma Conc. ([9]; rats, plasma, 2 hr after single PO 1 mg/kg, individual animals (n = 3), 1 mg/kg): 539 ng/mL and 652 ng/mL
Papp A→B at 5 uM (P-gp (human MDR1, ABCB1)): 63.3 ×10⁻⁶ cm/s
Papp B→A at 5 uM (P-gp (human MDR1, ABCB1)): 68.1 ×10⁻⁶ cm/s
efflux ratio at 5 uM (P-gp (human MDR1, ABCB1)): 1.1
phosphorylation of eIF4E in hDRGs ([10]; 30 min treatment): reduces phosphorylation of eIF4E
phosphorylation of eIF4E in hDRGs in the presence of OSM ([10]; in presence of OSM): reduces phosphorylation of eIF4E
